Values of other authors in patent US6541424B2, “Manufacture and use of a herbicide formulation” (Helena Chemical Company, priority 2000, dated 2003).

SMILES: O=C(O)CNCP(=O)(O)O [Glyphosate]
- solubility in water: approximately 1.2%
